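The compound was tested at five concentrations on cells cultured in 96-well plates, with a 48-hour exposure period. Definition used: TGI = concentration required for complete inhibition of growth.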
What was measured:
Experiment in all cases: NCI anticancer screen, dose series, 48 h
LOX IMVI melanoma = system: LOX IMVI melanoma
T-47D breast = system: T-47D breast
UACC-62 melanoma = system: UACC-62 melanoma
OVCAR-5 ovarian = system: OVCAR-5 ovarian
OVCAR-3 ovarian = system: OVCAR-3 ovarian
TK-10 renal = system: TK-10 renal
HL-60(TB) leukemia = system: HL-60(TB) leukemia
HOP-92 NSCLC = system: HOP-92 NSCLC
HCT-15 colon = system: HCT-15 colon
K-562 leukemia = system: K-562 leukemia
MCF7 breast = system: MCF7 breast
NCI/ADR-RES ovarian = system: NCI/ADR-RES ovarian
PC-3 prostate = system: PC-3 prostate
ACHN renal = system: ACHN renal
HCC-2998 colon = system: HCC-2998 colon
A498 renal = system: A498 renal
SR leukemia = system: SR leukemia
NCI-H226 lung = system: NCI-H226 lung
DU-145 prostate = system: DU-145 prostate
HCT-116 colon = system: HCT-116 colon
HT29 colon = system: HT29 colon
MDA-MB-435 = system: MDA-MB-435
UO-31 renal = system: UO-31 renal
SNB-75 CNS = system: SNB-75 CNS
SW-620 colon = system: SW-620 colon
SNB-19 CNS = system: SNB-19 CNS
SF-539 CNS = system: SF-539 CNS
IGROV1 ovarian = system: IGROV1 ovarian
SK-MEL-28 melanoma = system: SK-MEL-28 melanoma
NCI-H460 lung = system: NCI-H460 lung
MDA-N = system: MDA-N
HOP-62 NSCLC = system: HOP-62 NSCLC
SK-MEL-2 melanoma = system: SK-MEL-2 melanoma
M14 melanoma = system: M14 melanoma
MOLT-4 leukemia = system: MOLT-4 leukemia
KM12 colon = system: KM12 colon
SN12C renal = system: SN12C renal
OVCAR-4 ovarian = system: OVCAR-4 ovarian
SF-268 CNS = system: SF-268 CNS
SK-OV-3 ovarian = system: SK-OV-3 ovarian
RXF 393 renal = system: RXF 393 renal
MALME-3M melanoma = system: MALME-3M melanoma
EKVX NSCLC = system: EKVX NSCLC
OVCAR-8 ovarian = system: OVCAR-8 ovarian
RPMI-8226 leukemia = system: RPMI-8226 leukemia
MDA-MB-231 breast = system: MDA-MB-231 breast
CCRF-CEM leukemia = system: CCRF-CEM leukemia
SF-295 CNS = system: SF-295 CNS
U251 CNS = system: U251 CNS
UACC-257 melanoma = system: UACC-257 melanoma
NCI-H23 lung = system: NCI-H23 lung
CAKI-1 renal = system: CAKI-1 renal
HS 578T breast = system: HS 578T breast
COLO 205 colon = system: COLO 205 colon
BT-549 breast = system: BT-549 breast
786-0 renal = system: 786-0 renal
SK-MEL-5 melanoma = system: SK-MEL-5 melanoma
A549 NSCLC = system: A549 NSCLC

## CCOC(=O)c1cc2cc(Cc3ccc4[nH]c(C(=O)OCC)cc4c3)ccc2[nH]1
LOX IMVI melanoma
  TGI: > 100 µM
T-47D breast
  TGI: > 100 µM
UACC-62 melanoma
  TGI: 36.3 µM
OVCAR-5 ovarian
  TGI: > 100 µM
OVCAR-3 ovarian
  TGI: > 100 µM
TK-10 renal
  TGI: 31.4 µM
HL-60(TB) leukemia
  TGI: > 100 µM
HOP-92 NSCLC
  TGI: 27.8 µM
HCT-15 colon
  TGI: > 100 µM
K-562 leukemia
  TGI: > 100 µM
MCF7 breast
  TGI: > 100 µM
NCI/ADR-RES ovarian
  TGI: 52.6 µM
PC-3 prostate
  TGI: > 100 µM
ACHN renal
  TGI: 44 µM
HCC-2998 colon
  TGI: > 100 µM
A498 renal
  TGI: 36.4 µM
SR leukemia
  TGI: > 100 µM
NCI-H226 lung
  TGI: 62.4 µM
DU-145 prostate
  TGI: > 100 µM
HCT-116 colon
  TGI: > 100 µM
HT29 colon
  TGI: > 100 µM
MDA-MB-435
  TGI: > 100 µM
UO-31 renal
  TGI: > 100 µM
SNB-75 CNS
  TGI: 27.9 µM
SW-620 colon
  TGI: > 100 µM
SNB-19 CNS
  TGI: 30.6 µM
SF-539 CNS
  TGI: 36.3 µM
IGROV1 ovarian
  TGI: 35.7 µM
SK-MEL-28 melanoma
  TGI: > 100 µM
NCI-H460 lung
  TGI: > 100 µM
MDA-N
  TGI: > 100 µM
HOP-62 NSCLC
  TGI: 23 µM
SK-MEL-2 melanoma
  TGI: 81.1 µM
M14 melanoma
  TGI: > 100 µM
MOLT-4 leukemia
  TGI: > 100 µM
KM12 colon
  TGI: > 100 µM
SN12C renal
  TGI: > 100 µM
OVCAR-4 ovarian
  TGI: 21.4 µM
SF-268 CNS
  TGI: 38.5 µM
SK-OV-3 ovarian
  TGI: 55.4 µM
RXF 393 renal
  TGI: 29.4 µM
MALME-3M melanoma
  TGI: > 100 µM
EKVX NSCLC
  TGI: 78.9 µM
OVCAR-8 ovarian
  TGI: 23.6 µM
RPMI-8226 leukemia
  TGI: > 100 µM
MDA-MB-231 breast
  TGI: 37.9 µM
CCRF-CEM leukemia
  TGI: > 100 µM
SF-295 CNS
  TGI: 55.5 µM
U251 CNS
  TGI: 29.9 µM
UACC-257 melanoma
  TGI: > 100 µM
NCI-H23 lung
  TGI: 37.9 µM
CAKI-1 renal
  TGI: 34.3 µM
HS 578T breast
  TGI: 72.8 µM
COLO 205 colon
  TGI: > 100 µM
BT-549 breast
  TGI: 26.8 µM
786-0 renal
  TGI: 13 µM

## Fc1cccc(F)c1C1SCC2=Nc3ccccc3CN21 (stereo not drawn)
LOX IMVI melanoma
  TGI: > 100 µM
T-47D breast
  TGI: > 100 µM
UACC-62 melanoma
  TGI: > 100 µM
OVCAR-5 ovarian
  TGI: > 100 µM
OVCAR-3 ovarian
  TGI: 47.5 µM
TK-10 renal
  TGI: > 100 µM
HL-60(TB) leukemia
  TGI: > 100 µM
HOP-92 NSCLC
  TGI: > 100 µM
SK-MEL-5 melanoma
  TGI: > 100 µM
HCT-15 colon
  TGI: > 100 µM
K-562 leukemia
  TGI: > 100 µM
MCF7 breast
  TGI: > 100 µM
NCI/ADR-RES ovarian
  TGI: 79.5 µM
PC-3 prostate
  TGI: > 100 µM
ACHN renal
  TGI: > 100 µM
HCC-2998 colon
  TGI: > 100 µM
A498 renal
  TGI: > 100 µM
SR leukemia
  TGI: > 100 µM
DU-145 prostate
  TGI: > 100 µM
HCT-116 colon
  TGI: > 100 µM
MDA-MB-435
  TGI: > 100 µM
UO-31 renal
  TGI: > 100 µM
SNB-75 CNS
  TGI: 81.8 µM
SW-620 colon
  TGI: > 100 µM
SNB-19 CNS
  TGI: > 100 µM
SF-539 CNS
  TGI: 92.7 µM
IGROV1 ovarian
  TGI: > 100 µM
SK-MEL-28 melanoma
  TGI: > 100 µM
NCI-H460 lung
  TGI: > 100 µM
MDA-N
  TGI: > 100 µM
HOP-62 NSCLC
  TGI: 84.4 µM
M14 melanoma
  TGI: > 100 µM
MOLT-4 leukemia
  TGI: > 100 µM
KM12 colon
  TGI: > 100 µM
SN12C renal
  TGI: > 100 µM
OVCAR-4 ovarian
  TGI: > 100 µM
A549 NSCLC
  TGI: > 100 µM
SK-OV-3 ovarian
  TGI: > 100 µM
RXF 393 renal
  TGI: 63.2 µM
EKVX NSCLC
  TGI: > 100 µM
RPMI-8226 leukemia
  TGI: > 100 µM
MDA-MB-231 breast
  TGI: > 100 µM
CCRF-CEM leukemia
  TGI: > 100 µM
SF-295 CNS
  TGI: > 100 µM
U251 CNS
  TGI: > 100 µM
UACC-257 melanoma
  TGI: > 100 µM
NCI-H23 lung
  TGI: > 100 µM
CAKI-1 renal
  TGI: > 100 µM
HS 578T breast
  TGI: > 100 µM
COLO 205 colon
  TGI: > 100 µM
BT-549 breast
  TGI: > 100 µM
786-0 renal
  TGI: > 100 µM

From PubChem BioAssay (NCI)
